Test results taken from patent US4435404A, “Carbostyril derivatives” (priority 1980, dated 1984).

Assays:
[1] = test system: collagen-induced aggregation in rabbit platelet; assay: Inhibition effect on collagen-induced aggregation in rabbit platelet; assay type: cell-based; conditions: Oryctolagus cuniculus, Platelet, read-out: Inhibition effect on collagen-induced aggregation; for inhibition at 10 µM: concentration of the test compound solution 10^-5 mole; for inhibition at 1 µM: concentration of the test compound solution 10^-6 mole
Experimental: (§1) The platelet aggregation inhibitory effect is measured by using AG-II aggregometer (manufactured by Bryston Manufacturing Co.). The blood sample used for the test is a 1/9 (by volume) mixture of sodium citrate and whole blood collected from rabbit. Said sample is subjected to 10-minute centrifugal separation at 1,000 r.p.m. to obtain a platelet rich plasma (PRP). The thus obtained PRP is separated, and the remaining blood sample is further subjected to 15-minute centrifugal separation at 3,000 r.p.m. to obtain a platelet poor plasma (PPP).
(§2) The number of platelets in the PRP is counted by the Brecher-Clonkite Method, and the PRP is diluted with the PPP to prepare a PRP sample with platelet concentration of 300,000/mm^3 for the adenosine diphosphate (ADP)-induced aggregation test. There is also prepared a PRP sample with platelet concentration of 450,000/mm^3 for the collagen-induced aggregation test.
(§3) 0.6 Milliliter of said PRP sample is added into 0.01 ml of a solution of a test compound of a predetermined concentration and the mixture is placed in a 37° C. thermostat for one minute. Then 0.07 ml of an ADP or collagen solution is added to the mixture. Transmittance of this mixture is determined and the change of transmittance is recorded by using the aggregometer at stirrer speed of 1,100 r.p.m. […] The ADP solution is adjusted to a concentration of 7.5×10^-5 M, and the collagen solution is prepared by triturating 100 mg of collagen with 5 ml of said buffer and the supernatant is used as collagen inducer. Acetylsalicylic acid is used as control for the ADP-induced aggregation test and the collagen-induced aggregation test, respectively. The platelet aggregation inhibitory effect is measured in terms of percent inhibition with respect to the aggregation rate of the controls. The aggregation rate is calculated from the following formula:
(§4) Aggregation rate=[(c-a)/(b-a)]×100
(§5) b: transmittance of PRP containing a test compound and an aggregation inducer

[2] = biological target: T1, cyclic AMP phosphodiesterase (Oryctolagus cuniculus, UniProt G1ST54); assay: Obstructive action against cyclic AMP phosphodiesterase; assay type: biochemical; conditions: rabbit platelet enzyme, 30° C., 20 minutes
T1 construct: the supernatant was collected to use it as a crude enzyme solution; from tissue; host or cells: rabbit platelets (from platelet-rich plasma)
T1 sequence (G1ST54 1-1128): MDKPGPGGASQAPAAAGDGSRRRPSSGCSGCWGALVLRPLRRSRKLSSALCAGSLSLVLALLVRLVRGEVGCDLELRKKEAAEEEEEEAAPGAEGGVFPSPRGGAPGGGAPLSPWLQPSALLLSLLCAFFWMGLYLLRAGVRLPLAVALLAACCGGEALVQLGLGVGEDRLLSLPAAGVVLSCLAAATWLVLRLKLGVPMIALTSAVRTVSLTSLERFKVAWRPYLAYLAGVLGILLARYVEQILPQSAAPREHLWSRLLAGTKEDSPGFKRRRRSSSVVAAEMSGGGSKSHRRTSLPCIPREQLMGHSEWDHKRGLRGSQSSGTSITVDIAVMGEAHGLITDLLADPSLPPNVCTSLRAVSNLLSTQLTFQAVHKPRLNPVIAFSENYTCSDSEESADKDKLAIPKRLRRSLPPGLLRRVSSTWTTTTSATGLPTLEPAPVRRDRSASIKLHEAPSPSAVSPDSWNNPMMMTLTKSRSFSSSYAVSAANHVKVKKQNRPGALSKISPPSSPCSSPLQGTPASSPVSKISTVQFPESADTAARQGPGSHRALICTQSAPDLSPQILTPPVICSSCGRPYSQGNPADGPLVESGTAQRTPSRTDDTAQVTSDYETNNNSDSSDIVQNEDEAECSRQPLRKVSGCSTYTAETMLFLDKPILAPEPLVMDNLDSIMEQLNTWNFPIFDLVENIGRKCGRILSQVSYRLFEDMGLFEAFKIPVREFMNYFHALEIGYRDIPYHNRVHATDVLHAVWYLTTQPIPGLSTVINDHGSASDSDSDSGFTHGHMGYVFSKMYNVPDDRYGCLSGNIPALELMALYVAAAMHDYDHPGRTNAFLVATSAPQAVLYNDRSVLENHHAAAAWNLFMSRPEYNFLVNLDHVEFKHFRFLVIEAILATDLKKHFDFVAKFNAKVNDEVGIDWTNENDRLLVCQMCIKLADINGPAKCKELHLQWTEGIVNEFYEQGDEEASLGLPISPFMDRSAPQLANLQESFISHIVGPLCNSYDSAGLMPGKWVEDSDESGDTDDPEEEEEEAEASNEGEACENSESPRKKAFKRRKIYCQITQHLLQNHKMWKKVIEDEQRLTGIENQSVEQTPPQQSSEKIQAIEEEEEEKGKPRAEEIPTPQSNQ
Experimental: That is, for determining the obstructive activity against cyclic AMP phosphodiesterase, 10 ml of a solution obtained by adding 1 mmol of MgCl2 into 50 mmol of tris-hydrochloric acid buffer with pH 7.4 was added to the platelets obtained by further centrifuging the above-said rabbit PRP at 3,000 r.p.m. for 10 minutes, and the suspended platelets were ground by a Teflon potter type homogenizer. This was followed by two times of freezing and thawing treatment and 300-second fracturing with 200 watt supersonic waves. After additional 60-minute centrifugation with 100,000 G, the supernatant was collected to use it as a crude enzyme solution.
10 Milliliters of this crude buffer solution was added to a 1.5×20 cm DEAE-cellulose column which has previously been buffered with 50 mM of tris-acetate buffer (pH 6.0), followed by washing and elution with 30 ml of 50 mM tris-acetate buffer, and this buffer solution was subjected to linear gradient elution with 0 to 0.5 moles of sodium acetate-tris-acetatebuffer (total amount of elute was 300 ml.). The flow rate was 0.5 ml/min, and 5 ml of each fraction was batched out. […] This fraction was used as cyclic AMP phosphodiesterase.
0.1 Milliliter of an aqueous solution of each test compound of a specified concentration was mixed with 40 mmol of tris-hydrochloric acid buffer (pH 8.0, containing 50 μg of cow serum albumin and 4 mmol of MgCl2) containing predetermined 1.0 μmol of cyclic AMP (tritium cyclic AMP), and 0.2 ml of this mixed solution was used as substrate solution.
0.2 Milliliter of the above-prepared cyclic AMP phosphodiesterase of a predetermined concentration was added to said substrate solution and the mixture was reacted at 30° C. for 20 minutes, producing tritium 5'-AMP from the tritium cyclic AMP.
The reaction system was then immersed in boiling water for 2 minutes to stop the reaction, and then this reaction solution was cooled in ice water and, for converting the produced tritium 5'-AMP into tritium adenosine, the solution was added with 0.05 ml (1 mg/ml) of snake poison as 5'-nucleotidase and reacted at 30° C. for 10 minutes. The whole amount of this reaction solution was then added to a cation exchange resin (AG 500 W×4, 200-400 meshes, manufactured by Bio-Rad Co., column size: 0.5×1.5 cm), and the produced tritium anodesine alone was allowed to combine, washed with 6 ml of distilled water and eluted with 1.5 ml of 3 N-ammonia water. The whole quantity of the elutant was added with 10 ml of a triton-toluene type scintillator and the produced tritium adenosine was measured by a liquid scintillation counter to determine the phosphodiesterase activity.
In this way, the phosphodiesterase activation value (Vs) of the test compounds of the respective concentrations was determined, and the phosphodiesterase obstruction rate (%) was determined from said activation value (Vs) and control value (Vc) (obtained from water not containing any test compound) from the following formula: [formula] Known 1-methyl-3-isobutylxanthine was used as control.

Acute Toxicity Test = conditions: mouse, in vivo; male mice, oral administration
Experimental: The test compounds were administered orally to the mice and LD50 (mg/kg) of the compounds was determined.

[3] = test system: ADP-induced aggregation in rabbit platelet; assay: Inhibition effect on ADP-induced aggregation in rabbit platelet; assay type: cell-based; conditions: Oryctolagus cuniculus, Platelet; for inhibition at 100 µM: concentration of the test compound solution 10^-4 mole; for inhibition at 10 µM: concentration of the test compound solution 10^-5 mole; for inhibition at 10 µM / inhibition at 1 µM: read-out: Inhibition effect on ADP-induced aggregation; for inhibition at 1 µM: concentration of the test compound solution 10^-6 mole
Experimental: as §1, §2, §3, §4, §5

Structure (SMILES) | inhibition at 10 µM [1] [%] | inhibition at 1 µM [1] [%] | IC50 [2] [nM] | LD50 (Acute Toxicity Test) [mg/kg] | inhibition at 100 µM [3] [%] | inhibition at 10 µM [3] [%] | inhibition at 1 µM [3] [%]
CCCCN(CC1CCCCO1)C(=O)CCCCOc1ccc2c(c1)CCC(=O)N2 (stereo not shown) [No. 12, 6-{4-[N-Butyl-N-(2-tetrahydropyranylmethyl)aminocarbonyl]butoxy}-3,4-dihydrocarbostyril] | 100 | 10.3 | 25 | > 1000 | 100 | 40.2 | 8.3
O=C1CCc2cc(OCCCCC(=O)N(CCO)c3ccccc3)ccc2N1 [No. 11, 6-{4-[N-(2-Hydroxyethyl)-N-phenylaminocarbonyl]butoxy}-3,4-dihydrocarbostyril] | 100 | 33.9 |  | > 1000 | 100 | 49.5 | 22.4
O=C1CCc2cc(OCCCC(=O)N3CCN(C4CCCCC4)CC3)ccc2N1 [No. 18, 6-[3-(4-Cyclohexyl-1-piperazinylcarbonyl)propoxy]-3,4-dihydrocarbostyril] | 45.6 | 15.2 |  | > 1000 | 100 | 42.1 | 7
CC(=O)OC1CCC(N(C)C(=O)CCCOc2ccc3[nH]c(=O)ccc3c2)CC1 (stereo not shown) [No. 26, 6-{3-[N--Methyl-N--(4-acetyloxycyclohexyl)aminocarbonyl]propoxy}carbostyril, reference compound] |  |  | 6.6 |  |  |  | 
O=C1CCc2cc(OCCCC(=O)N3CCN(c4ccccc4)CC3)ccc2N1 [No. 17, 6-[3-(4-Phenyl-1-piperazinylcarbonyl)propoxy]-3,4-dihydrocarbostyril] | 37.8 | 3.4 |  | > 1000 | 100 | 25.1 | 4.3
CC(=O)OCCCN(CC1CCCCO1)C(=O)CCCCOc1ccc2c(c1)CCC(=O)N2 (stereo not shown) [No. 21, 6-{4-[N-(3-Acetyloxypropyl)-N-(2-tetrahydropyranylmethyl)aminocarbonyl]butoxy}-3,4-dihydrocarbostyril] | 82.9 | 34.2 |  | > 1000 | 100 | 60.6 | 18.6
CCN(C(=O)CCCOc1ccc2[nH]c(=O)ccc2c1)c1ccccn1 [No. 3, 6-{3-[N-Ethyl-N-(2-pyridyl)aminocarbonyl]propoxy}carbostyril] | 100 | 14 | 400 | > 1000 | 100 | 31 | 10
CC(C)Cn1c(=O)n(C)c(=O)c2[nH]cnc21 [1-Methyl-3-isobutylxanthine, 1-methyl-3-isobutylxanthine, reference compound] |  |  | 540 |  |  |  | 
O=C1CCc2cc(OCCCCC(=O)N(CCCCO)CC3CCCCC3)ccc2N1 [No. 8, 6-{4-[N-(4-Hydroxybutyl)-N-cyclohexylmethylaminocarbonyl]butoxy}-3,4-dihydrocarbostyril] | 100 | 10.2 |  | > 1000 | 100 | 72.1 | 12.2
O=C(CCCOc1ccc2[nH]c(=O)ccc2c1)N(CCO)C1CCCC(O)C1 (stereo not shown) [No. 19, 6-{3-[N-(2-Hydroxyethyl)-N-(3-hydroxycyclohexyl)aminocarbonyl]propoxy}carbostyril] | 95.3 | 47.5 |  | > 1000 | 100 | 63.2 | 12
CCC(O)CN(CC1CCCCC1)C(=O)CCCCOc1ccc2c(c1)CCC(=O)N2 (stereo not shown) [No. 7, 6-{4-[N-(2-Hydroxybutyl)-N-cyclohexylmethylaminocarbonyl]butoxy}-3,4-dihydrocarbostyril] | 100 | 13.3 |  | > 1000 | 100 | 64.3 | 18.6
O=C(CCCOc1ccc2[nH]c(=O)ccc2c1)N1CCC(c2ccccc2)CC1 [No. 16, 6-[3-(4-Phenyl-1-piperidylcarbonyl)propoxy]carbostyril] | 40.8 | 7.7 |  | > 1000 | 100 | 27.9 | 4.9
O=C1CCc2cc(OCCCCC(=O)N(CCO)CC3CCCCO3)ccc2N1 (stereo not shown) [No. 13, 6-{4-[N-(2-Hydroxyethyl)-N-(2-tetrahydropyranylmethyl)aminocarbonyl]butoxy}-3,4-dihydrocarbostyril] | 81.7 | 5.2 |  | > 1000 | 100 | 30.1 | 5.3
